{"source": "patent US7273870B2", "about": "“Stabilized difloxacin injectable solution” (Wyeth, priority 2002, dated 2007)", "origin": "cited, not measured here", "data": [{"smiles": "CN1CCN(c2cc3c(cc2F)c(=O)c(C(=O)O)cn3-c2ccc(F)cc2)CC1", "note": "[Difloxacin, 6-fluoro-1-(4-fluorophenyl)-1,4-dihydro-7-(4-methyl-1-piperadinyl) 4-oxo-3-quinolinecarboxylic acid]", "values": [{"measurement": "Solubility in water", "value": "not highly soluble in water"}]}]}
